Laboratory results reported in US8476271B2 (priority 2008, dated 2013).
Structures can show the parent of a compound that is named as a salt.

Assays:
[1] = test system: FCA-induced thermal hyperalgesia; assay: FCA model of inflammatory pain, thermal hyperalgesia (PWL, plantar test); assay type: in vivo; conditions: rat
Method: (§1) Each experiment used rats weighing between 200-260 g at the start of the experiment. The rats were group-housed and had free access to food and water at all times, except prior to oral administration of a Substituted-Quinoxaline-Type Bridged-Piperidine Compound when food was removed for 16 hours before dosing. A control group acted as a comparison to rats treated with a Substituted-Quinoxaline-Type Bridged-Piperidine Compound. The control group was administered the carrier for the Substituted-Quinoxaline-Type Bridged-Piperidine Compound. The volume of carrier administered to the control group was the same as the volume of carrier and Substituted-Quinoxaline-Type Bridged-Piperidine Compound administered to the test group.
To assess the actions of a Substituted-Quinoxaline-Type Bridged-Piperidine Compound for the treatment or prevention of inflammatory pain, the Freund's complete adjuvant (“FCA”) model of inflammatory pain was used. […] The left hind paw of each animal was administered a 50 μL intraplantar injection of 50% FCA. 24 hour post injection, the animal was assessed for response to noxious mechanical stimuli by determining the PWT, or to noxious thermal stimuli by determining the PWL, as described below. […] Responses to noxious mechanical stimuli were then determined 1, 3, 5 and 24 hours post administration. Percentage reversal of hyperalgesia for each animal was defined as: […]
The plantar test can be used to assess thermal hyperalgesia. For this test, hind paw withdrawal latencies (PWL) to a noxious thermal stimulus were determined using a plantar test apparatus (commercially available from Ugo Basile of Italy) following the technique described by K. Hargreaves et al., “A New and Sensitive Method for Measuring Thermal Nociception in Cutaneous Hyperalgesia,” Pain 32(1):77-88 (1988). The maximum exposure time was set at 32 seconds to avoid tissue damage and any directed paw withdrawal from the heat source was taken as the end point. Three latencies were determined at each time point and averaged. Either only the affected (ipsilateral) paw was tested, or both the ipsilateral and contralateral (non-injured) paw were tested.

[2] = abnormal behavioral side effects (sedation, hyperactivity, hypoactivity); conditions: rat, in vivo
[3] = test system: nerve injury-induced mechanical hyperalgesia; assay: Seltzer partial sciatic nerve ligation model of neuropathic pain, mechanical hyperalgesia (PWT); assay type: in vivo; conditions: rat, 3 mg/kg
Method: as §1
Partial ligation of the left sciatic nerve was performed under isoflurane/O2 inhalation anesthesia. Following induction of anesthesia, the left thigh of the rat was shaved and the sciatic nerve exposed at high thigh level through a small incision and was carefully cleared of surrounding connective tissues at a site near the trocanther just distal to the point at which the posterior biceps semitendinosus nerve branches off of the common sciatic nerve. A 7-0 silk suture was inserted into the nerve with a ⅜ curved, reversed-cutting mini-needle and tightly ligated so that the dorsal ⅓ to ½ of the nerve thickness was held within the ligature. The wound was closed with a single muscle suture (4-0 nylon (Vicryl)) and vetbond tissue glue. Following surgery, the wound area was dusted with antibiotic powder. Sham-treated rats underwent an identical surgical procedure except that the sciatic nerve was not manipulated. Following surgery, animals were weighed and placed on a warm pad until they recovered from anesthesia. Animals were then returned to their home cages until behavioral testing began. The animals were assessed for response to noxious mechanical stimuli by determining PWT, as described below, prior to surgery (baseline), then immediately prior to and 1, 3, and 5 hours after drug administration for rear paw of the animal. Percentage reversal of neuropathic hyperalgesia was defined as: […]
The paw pressure assay was used to assess mechanical hyperalgesia. For this assay, hind paw withdrawal thresholds (PWT) to a noxious mechanical stimulus were determined using an analgesymeter (Model 7200, commercially available from Ugo Basile of Italy) as described in C. […] The maximum weight that could be applied to the hind paw was set at 250 g and the end point is taken was complete withdrawal of the paw. PWT was determined once for each rat at each time point and either only the affected (ipsilateral) paw was tested, or both the ipsilateral and contralateral (non-injured) paw were tested.

[4] = target: hERG (human ether a-go-go gene) (Homo sapiens (Human), UniProt Q12809); assay: cardiovascular side effects: in vitro hERG assay and APD in guinea pig purkinje fibers
Method: These side effects were determined using known methods: an in vitro hERG (human ether a-go-go gene) assay as disclosed in Z. Zhou et al., “Properties of HERG Channels Stably Expressed in HEK 293 Cells Studied at Physiological Temperature,” Biophysical J. 74:230-241 (1998); and APD (action potential duration) in guinea pig purkinje fibers as disclosed in J. A. Hey, “The Guinea Pig Model for Assessing Cardiotoxic Proclivities of Second Generation Antihistamines,” Arzneimittelforschung 46(8):834-837 (1996).

[5] = 5 mg/kg dose, 1 hour after administration
[6] = 5 mg/kg dose, 3 hours after administration
[7] = 5 mg/kg dose, 5 hours after administration

## O=C(O)c1nc2ccccc2n([C@H]2C[C@H]3CC[C@@H](C2)N3C2CCCCCCCCCC2)c1=O [Compound 358, 4-((endo)-8-cycloundecyl-8-azabicyclo[3.2.1]octan-3-yl)-3-oxo-3,4-dihydroquinoxaline-2-carboxylic acid]
[1]; [5]
  % reversal of thermal hyperalgesia: 34%
[1]; [6]
  % reversal of thermal hyperalgesia: 46%
[1]; [7]
  % reversal of thermal hyperalgesia: 79%
[2]
  abnormal behavioral side effects, such as sedation, hyperactivity and/or hypoactivity: reduced abnormal behavioral side effects

## O=C(O)c1nc2ccccc2n([C@H]2C[C@H]3CC[C@@H](C2)N3[C@H]2C[C@@H]3CCC[C@@H](C3)C2)c1=O [Compound 361, 4-((endo)-8-((exo)-bicyclo[3.3.1]nonan-3-yl)-8-azabicyclo[3.2.1]octan-3-yl)-3-oxo-3,4-dihydroquinoxaline-2-carboxylic acid]
[1]; [5]
  % reversal of thermal hyperalgesia: 36%
[1]; [6]
  % reversal of thermal hyperalgesia: 90%
[1]; [7]
  % reversal of thermal hyperalgesia: 70%
[2]
  abnormal behavioral side effects, such as sedation, hyperactivity and/or hypoactivity: reduced abnormal behavioral side effects

## O=C(O)c1nc2ccccc2n([C@H]2C[C@H]3CCC[C@@H](C2)N3C2CC3CCCC(C3)C2)c1=O (stereo partly drawn) [Compound 362, 4-((endo)-9-((exo)-bicyclo[3.3.1]nonan-3-yl)-9-azabicyclo[3.3.1]nonan-3-yl)-3-oxo-3,4-dihydroquinoxaline-2-carboxylic acid]
[1]; 3 mg/kg dose, 1 hour after administration
  % reversal of thermal hyperalgesia: 86%
[1]; 3 mg/kg dose, 3 hours after administration
  % reversal of thermal hyperalgesia: 51%
[1]; 3 mg/kg dose, 5 hours after administration
  % reversal of thermal hyperalgesia: 27%
[1]; 1 hour after administration
  ED50 for reversal of thermal hyperalgesia: 0.8 mg/kg
[1]; 3 hours after administration
  ED50 for reversal of thermal hyperalgesia: 1.5 mg/kg
[1]; 5 hours after administration
  ED50 for reversal of thermal hyperalgesia: 3.0 mg/kg
[3]; 1 hour after administration
  % reversal of mechanical hyperalgesia: 60%
[3]; 3 hours after administration
  % reversal of mechanical hyperalgesia: 60%
[3]; 5 hours after administration
  % reversal of mechanical hyperalgesia: 50%
[3]; 7 hours after administration
  % reversal of mechanical hyperalgesia: 40%
[2]
  abnormal behavioral side effects, such as sedation, hyperactivity and/or hypoactivity: reduced abnormal behavioral side effects
[4]
  cardiovascular side effects: reduced cardiovascular side effects

## C[C@@H]1C[C@@H]2C[C@H](C1)C[C@@H](N1[C@@H]3CCC[C@H]1C[C@@H](n1c(=O)c(C(=O)O)nc4ccccc41)C3)C2 [Compound 405, (exo, endo, endo)-4-(9-(7-methylbicyclo[3.3.1]nonan-3-yl)-9-azabicyclo[3.3.1]nonan-3-yl)-3-oxo-3,4-dihydroquinoxaline-2-carboxylic acid potassium salt]
[3]; 1 hour after administration
  % reversal of mechanical hyperalgesia: 70%
[3]; 3 hours after administration
  % reversal of mechanical hyperalgesia: 70%
[3]; 5 hours after administration
  % reversal of mechanical hyperalgesia: 70%
